Reference: patent US20130302442A1, “METHODS OF USING (4S,4AS,5AR,12AS)-4-DIMETHYLAMINO-3,10,12,12A-TETRAHYDROXY-7-[(METHOXY(METHYL)AMINO)-METHYL]-1,11-DIOXO-1,4,4A,5,5A,6,11,12A-OCTAHYDRO-NAPHTHACENE-2-CARBOXYLIC ACID AMIDE” (priority 2012, published 2013)
Converted amounts (≈) assume the structure as drawn. Like-named read-outs stand apart in the source and are kept apart here.

Experiments:
Assay type in all cases: cell-based
P. mirabilis = experiment: In vitro MIC testing, antibacterial spectrum of activity; details: Proteus mirabilis; P. mirabilis (30 isolates)
Salmonella Spp. = experiment: as above; details: for MIC50 / MIC90: Salmonella
E. cloacae = experiment: as above; details: Enterobacter cloacae; E. cloacae (30 isolates)
P. aeruginosa = experiment: as above; details: P. aeruginosa (11 isolates); for MIC50 / MIC90: Pseudomonas aeruginosa
E. coli = experiment: as above; details: Escherichia coli
K. pneumoniae = experiment: as above; details: K. pneumoniae (31 isolates); for MIC50 / MIC90: Klebsiella pneumoniae
E. faecium = experiment: as above; details: Enterococcus faecium; for MIC50: read-out: MIC50; for MIC90: read-out: MIC90
E. faecalis = experiment: as above; details: E. faecalis [VSE] (31 isolates)
Chlamydia trachomatis [1] = experiment: Susceptibility testing (MIC, MBC) of 10 isolates of C. trachomatis in HEp-2 cells
Chlamydia pneumoniae = experiment: Susceptibility testing (MIC, MBC) of 10 isolates of C. pneumoniae in HEp-2 cells
Chlamydia trachomatis [2] = experiment: In vitro susceptibility testing of Chlamydia trachomatis in HEp-2 cells (first study); details: Chlamydia trachomatis, C. trachomatis strains, read-out: MIC at which 90% of the strains were inhibited (MIC90)

SMILES	MIC50 (P. mirabilis)	MIC90 (P. mirabilis)	MIC50 (Salmonella Spp.)	MIC90 (Salmonella Spp.)	MIC50 (E. cloacae)	MIC90 (E. cloacae)	MIC Range (P. aeruginosa)	MIC50 (P. aeruginosa)	MIC90 (P. aeruginosa)	MIC50 (E. coli)	MIC90 (E. coli)	MIC Range (K. pneumoniae)	MIC50 (K. pneumoniae)	MIC90 (K. pneumoniae)	also measured
CC1(C)S[C@@H]2[C@H](NC(=O)[C@H](N)c3ccccc3)C(=O)N2[C@H]1C(=O)O [Ampicillin]	4 µg/mL (≈ 11.4 µM)	> 64 µg/mL	1 µg/mL (≈ 2.86 µM)	> 64 µg/mL	64 µg/mL (≈ 183 µM)	> 64 µg/mL	>64 µg/mL	> 64 µg/mL	> 64 µg/mL	> 64 µg/mL	> 64 µg/mL	>64 µg/mL	> 64 µg/mL	> 64 µg/mL	MIC50 (E. faecium; E. faecium [VRE] (30 isolates)): > 64 µg/mL; MIC90 (E. faecium; E. faecium [VRE] (30 isolates)): > 64 µg/mL; MIC50 (E. faecium; E. faecium [VSE] (32 isolates)): 64 µg/mL (≈ 183 µM); MIC90 (E. faecium; E. faecium [VSE] (32 isolates)): > 64 µg/mL; MIC Range (E. faecalis): 0.5 to 8 µg/mL; MIC50 (E. faecalis; Enterococcus faecalis, read-out: MIC50): 1 µg/mL (≈ 2.86 µM); MIC90 (E. faecalis; Enterococcus faecalis, read-out: MIC90): 1 µg/mL (≈ 2.86 µM)
CC[C@H]1OC(=O)[C@H](C)[C@@H](O[C@H]2C[C@@](C)(OC)[C@@H](O)[C@H](C)O2)[C@H](C)[C@@H](O[C@@H]2O[C@H](C)C[C@H](N(C)C)[C@H]2O)[C@](C)(O)C[C@@H](C)CN(C)[C@H](C)[C@@H](O)[C@]1(C)O [Azithromycin]															MIC Range (Chlamydia trachomatis [1]; 72 h): 0.003 to 0.03 µg/mL; MIC50 (Chlamydia trachomatis [1]; Chlamydia trachomatis, 72 h): 0.0075 µg/mL (≈ 0.01 µM); MIC90 (Chlamydia trachomatis [1]; Chlamydia trachomatis, 72 h): 0.015 µg/mL (≈ 0.02 µM); MBC (Chlamydia trachomatis [1]; Chlamydia trachomatis, after passage, read-out: MBC 90%): 0.015 µg/mL (≈ 0.02 µM); MBC Range (Chlamydia trachomatis [1]; after passage): 0.007 to 0.03 µg/mL; MIC Range (Chlamydia pneumoniae; 72 h): 0.03 to 0.0625 µg/mL; MIC50 (Chlamydia pneumoniae; Chlamydia pneumoniae, 72 h): 0.0625 µg/mL (≈ 0.0834 µM); MIC90 (Chlamydia pneumoniae; Chlamydia pneumoniae, 72 h): 0.0625 µg/mL (≈ 0.0834 µM); MBC (Chlamydia pneumoniae; Chlamydia pneumoniae, after passage, read-out: MBC 90%): 0.25 µg/mL (≈ 0.334 µM); MBC 90% (Chlamydia pneumoniae; after passage): 0.25 µg/mL (≈ 0.334 µM); MBC Range (Chlamydia pneumoniae; after passage): 0.0625 to 0.25 µg/mL; MIC90 (Chlamydia trachomatis [2]): 0.015 µg/mL (≈ 0.02 µM)
CC(=O)OCC1=C(C(=O)O)N2C(=O)[C@@H](NC(=O)Cc3cccs3)[C@H]2SC1 [Cephalothin]	8 µg/mL (≈ 20.2 µM)	> 64 µg/mL	2 µg/mL (≈ 5.04 µM)	16 µg/mL (≈ 40.4 µM)	> 64 µg/mL	> 64 µg/mL	>64 µg/mL	> 64 µg/mL	> 64 µg/mL		> 64 µg/mL	>64 µg/mL	> 64 µg/mL	> 64 µg/mL	
O=C(O)c1cn(C2CC2)c2cc(N3CCNCC3)c(F)cc2c1=O [Ciprofloxacin]	> 2 µg/mL	> 2 µg/mL	0.015 µg/mL (≈ 0.0453 µM)	0.03 µg/mL (≈ 0.0905 µM)				> 2 µg/mL	> 2 µg/mL	0.015 µg/mL (≈ 0.0453 µM)	> 2 µg/mL		> 2 µg/mL	> 2 µg/mL	MIC Range (Salmonella Spp.; Salmonella Spp. (35 isolates)): 0.015 to 0.25 µg/mL
